The structures appear in SMILES notation.

What all share (format): cell-based, mouse
The subject of one experiment is Myc-CAP-PTEN^−/− cells. Kind of experiment: Myc-CAP-PTEN−/− cells in vitro (western blotting, cytokine array). The conditions noted are these: 24 hours. How it is done: FIGS. 35A-35D. […] (35A) Myc-CAP-PTEN^−/− cells were treated with copanlisib […] (IC90 concentration) in vitro for 24 hours, and protein extracts were harvested for western blotting analysis with the indicated antibodies to analyze PI3K activation. (35B) Supernatants from (35A) were harvested for cytokine array profiling. n=3 independent in vitro experiments. (35C) Mice bearing Myc-CAP-PTEN^−/− established syngeneic tumors (200 mm^3) were treated with copanlisib (14 mg/kg, every other day, until tumors reached 2000 mm^3). Tumor volumes were monitored daily and graphed. (35D) At the end of treatment, tumors were analyzed by flow cytometry for tumor infiltrating immune cell subsets. n=5 mice per group.
FIGS. 49A and 49B. PTEN-deficient cancer cells have diminished STING expression that can be restored by […] and pan-PI3K inhibitors. (49A) Isogenic MC38, Myc-CAP, ID8, and TRAMP cells (−/+ PTEN) were analyzed for STING mRNA and protein expression by qRT-PCR and western blotting, respectively. (49B) Myc-CAP-PTEN^−/− cells were treated with GSK′771 (PI3Kβ-selective inhibitor, 1 μM) or BKM120 (pan-PI3K inhibitor, 1 μM) for 24 hours, and proteins were analyzed for STING expression and PI3K activation by western blotting.
Cancer Cell Lines and in vitro drug treatments. Transgenic c-myc^hi prostate tumor derived cell line, Myc-CAP and TRAMPC1, ovarian cancer cell line ID8 and murine colon adenocarcinoma line MC38 were obtained from the American Type Culture Collection (ATCC) and passaged in either 1×RPMI/1×DMEM (with phenol) or 1×DMEM (without phenol red) containing 10% fetal bovine serum, 1% penicillin-streptomycin, 2% L-glutamine and 1×ITS. ID8^pten−/−p53−/−cells were a kind gift from Dr. Ian McNeish (Imperial College, London). For generation of STING over expressing cell lines −Myc-CAP^pten+/+ and ID8^pten−/− cells were transfected with commercial available plasmid (DC-Mm22462-SH02, Genecoepia™), sorted and expanded as per protocol. […]

A further experiment concerns PARP. Briefly: In vitro target inhibition by western blotting (PARylation).
In experiment [1] the test system is Myc-CAP (STING^lo) cancer cells. Kind of experiment: IFNβ1 ELISA of supernatants after DMXAA treatment. The conditions noted are these: 36 hours. How it is done: FIGS. 15A-15E. Differential STING pathway activation within B6-Myc (STING^hi) cell lines and BMDMs relative to Myc-CAP (STING^lo) cells. (15A, 15B) The indicated cancer cell lines and BMDMs were treated with DMXAA (mouse STING agonist) for 1 and 24 hours, respectively, and protein extracts were interrogated for cGAS/STING pathway activation with the indicated antibodies by Western blotting. Supernatants were collected from for IFNβ1 ELISA following 36 hours of treatment with DMXAA (15C, 15D). (15E) Syngeneic Myc-CAP (STING^lo) tumors were processed into single cell suspensions and used for phycoerythrin-based sorting of CD45+ cellular fractions. Equal numbers of cells from these fractions were stimulated with DMXAA. Supernatants were collected at 36 hrs for detection of IFNB1 by ELISA; n=3 independent experiments; Significance/p-values were calculated by one-way Anova (for 15C & 15E) or paired t-test (for 15D); TAM=tumor associated macrophage; s.e.=short exposure; l.e.=long exposure.
Cancer Cell Lines. Transgenic c-myc” prostate tumor derived cell line, Myc-CAP) (STING^lo) was obtained from ATCC and passaged in 1× DMEM (without phenol red) containing 10% fetal bovine serum, 1% penicillin-streptomycin and 2% L-glutamine. The corresponding c-myc^hi line derived from a C57BL6 generated background were grown for in vitro studies, using same culture conditions as for Myc-CAP. […]

Take `Nc1cc(C(F)(F)F)c(-c2cc(N3CCOCC3)nc(N3CCOCC3)n2)cn1` [buparlisib]: in the experiment on Myc-CAP-PTEN^−/− cells (1 μM), the “STING expression (western blotting)” value is recorded as “restored”. Turning to `CNCc1ccc(-c2[nH]c3cc(F)cc4c3c2CCNC4=O)cc1` [rucaparib], the “concentration that achieved complete target inhibition in vitro” value with PARP (B6-Myc cells (FIG. 17B)) is 500 nM. In the experiment on PARP (B6-Myc in vitro), the “concentration that completely inhibits PARylation” value amounted to 500 nm. Also, the “complete target inhibition concentration” value with PARP (Myc-CAP cells (FIG. 29B)) worked out at 500 nM.

In the case of `COc1c(OCCCN2CCOCC2)ccc2c1N=C(NC(=O)c1cnc(N)nc1)N1CCN=C21` [copanlisib], in the experiment with Myc-CAP-PTEN^−/− cells (copanlisib 100 nm, cytokine array), the CXCL1 production result is given as “decreasing CXCL1 production”. In the case of `Cc1ccc2c(=O)c3cccc(CC(=O)O)c3oc2c1C` [DMXAA, 5,6-Dimethylxanthenone-4-acetic Acid], in experiment [1], the “induction in IFN-β levels” value is on record as “not observed”.

These data come from patent US20210017607A1, “Methods of Predicting Responsiveness to Cancer Therapies” (The University of Chicago, priority 2019, published 2021).
